Here are results for 14 compounds from patent US12187723B2 (BRISTOL-MYERS SQUIBB COMPANY, priority 2019, dated 2025).

One test deals with T1, human TLR7 (Homo sapiens, UniProt Q9NYK1).
T1 construct: host or cells: HEK-Blue cells
T1 sequence (Q9NYK1 27-1049): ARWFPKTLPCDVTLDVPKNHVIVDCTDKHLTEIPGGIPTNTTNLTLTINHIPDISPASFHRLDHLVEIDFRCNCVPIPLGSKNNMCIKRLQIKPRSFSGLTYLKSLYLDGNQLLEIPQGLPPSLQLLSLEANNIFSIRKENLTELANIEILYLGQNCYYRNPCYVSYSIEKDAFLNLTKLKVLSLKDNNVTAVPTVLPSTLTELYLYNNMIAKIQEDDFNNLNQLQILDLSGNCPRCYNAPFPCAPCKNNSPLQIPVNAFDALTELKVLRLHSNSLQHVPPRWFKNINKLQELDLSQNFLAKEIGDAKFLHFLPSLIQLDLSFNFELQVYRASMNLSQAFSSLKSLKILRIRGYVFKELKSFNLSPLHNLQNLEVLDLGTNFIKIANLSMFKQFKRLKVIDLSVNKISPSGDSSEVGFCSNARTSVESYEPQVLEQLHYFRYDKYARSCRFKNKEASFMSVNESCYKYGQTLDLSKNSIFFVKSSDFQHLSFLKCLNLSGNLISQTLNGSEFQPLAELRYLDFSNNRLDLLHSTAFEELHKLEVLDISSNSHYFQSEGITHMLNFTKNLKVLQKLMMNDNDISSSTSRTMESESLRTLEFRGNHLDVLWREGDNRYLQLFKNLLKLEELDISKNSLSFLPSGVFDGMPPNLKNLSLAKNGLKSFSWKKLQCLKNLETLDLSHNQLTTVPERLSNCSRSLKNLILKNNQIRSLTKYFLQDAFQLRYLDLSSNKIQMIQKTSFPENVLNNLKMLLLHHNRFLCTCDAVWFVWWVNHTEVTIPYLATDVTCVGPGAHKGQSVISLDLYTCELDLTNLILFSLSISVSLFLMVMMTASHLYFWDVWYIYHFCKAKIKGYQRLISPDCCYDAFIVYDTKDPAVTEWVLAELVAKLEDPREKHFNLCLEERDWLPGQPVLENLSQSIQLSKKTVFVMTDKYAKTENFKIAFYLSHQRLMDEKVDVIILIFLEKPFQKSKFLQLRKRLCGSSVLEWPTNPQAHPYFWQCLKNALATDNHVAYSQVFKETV
As to the kind of experiment: TLR7 inhibition reporter assay (HEK-Blue SEAP). Type of test: cell-based. The settings on record: HEK-Blue cells overexpressing human TLR7, gardiquimod 7.5 μM, 22 hour incubation. As to the method:
(§1) TLR7/8/9 Inhibition Reporter Assays
Briefly, cells are seeded into Greiner 384 well plates (15000 cells per well for TLR7, 20,000 for TLR8 and 25,000 for TLR9) and then treated with test compounds in DMSO to yield a final dose response concentration range of 0.05 nM-50 μM. […] After a 22 hour incubation at 37° C., 5% CO2, SEAP levels are determined with the addition of HEK-Blue™ Detection reagent (Invivogen), a cell culture medium that allows for detection of SEAP, according to manufacturer's specifications. The percent inhibition is determined as the % reduction in the HEK-Blue signal present in wells treated with agonist plus DMSO alone compared to wells treated with a known inhibitor.

A further test addresses T2, human TLR9 (Homo sapiens, UniProt Q9NR96).
T2 construct: host or cells: HEK-Blue cells
T2 sequence (Q9NR96 26-1032): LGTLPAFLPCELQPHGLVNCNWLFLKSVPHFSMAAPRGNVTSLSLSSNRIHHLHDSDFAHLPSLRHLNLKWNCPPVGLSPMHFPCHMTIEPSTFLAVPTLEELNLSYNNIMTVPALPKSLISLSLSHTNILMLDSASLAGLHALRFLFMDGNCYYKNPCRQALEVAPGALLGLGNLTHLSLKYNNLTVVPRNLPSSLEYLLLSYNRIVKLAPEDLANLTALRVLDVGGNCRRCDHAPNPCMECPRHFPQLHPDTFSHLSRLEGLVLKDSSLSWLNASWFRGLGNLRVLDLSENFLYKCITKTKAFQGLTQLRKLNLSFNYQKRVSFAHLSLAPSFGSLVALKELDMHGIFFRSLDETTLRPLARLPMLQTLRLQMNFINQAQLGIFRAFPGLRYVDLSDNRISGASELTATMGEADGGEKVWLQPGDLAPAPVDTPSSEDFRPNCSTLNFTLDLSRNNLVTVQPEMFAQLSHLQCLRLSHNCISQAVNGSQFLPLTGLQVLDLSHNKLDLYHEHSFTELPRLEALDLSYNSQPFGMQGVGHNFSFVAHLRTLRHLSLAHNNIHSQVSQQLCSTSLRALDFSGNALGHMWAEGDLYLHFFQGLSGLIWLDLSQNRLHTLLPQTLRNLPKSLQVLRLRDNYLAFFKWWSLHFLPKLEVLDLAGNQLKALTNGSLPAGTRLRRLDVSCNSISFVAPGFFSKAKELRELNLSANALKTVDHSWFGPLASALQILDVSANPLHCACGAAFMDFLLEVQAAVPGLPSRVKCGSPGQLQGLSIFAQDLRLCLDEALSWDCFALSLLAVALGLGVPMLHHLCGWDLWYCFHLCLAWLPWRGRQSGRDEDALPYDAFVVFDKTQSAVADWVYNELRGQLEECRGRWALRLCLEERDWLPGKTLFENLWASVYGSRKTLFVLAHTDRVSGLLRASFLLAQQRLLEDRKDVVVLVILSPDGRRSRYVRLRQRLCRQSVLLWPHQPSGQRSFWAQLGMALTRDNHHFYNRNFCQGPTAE
As to the kind of experiment: TLR9 inhibition reporter assay (HEK-Blue SEAP). The settings on record: HEK-Blue cells overexpressing human TLR9, ODN2006 5 nM, 22 hour incubation. It counts as cell-based. The procedure: as §1
HEK-Blue™-cells (Invivogen) overexpressing human TLR7, TLR8 or TLR9 receptors were used for screening inhibitors of these receptors using an inducible SEAP (secreted embryonic alkaline phosphatase) reporter gene under the control of the IFN-β minimal promoter fused to five NF-κB and AP-1-binding sites. Briefly, cells are seeded into Greiner 384 well plates (15000 cells per well for TLR7, 20,000 for TLR8 and 25,000 for TLR9) and then treated with test compounds in DMSO to yield a final dose response concentration range of 0.05 nM-50 μM. After a 30 minute compound pre-treatment at room temperature, the cells are then stimulated with a TLR7 ligand (gardiquimod at a final concentration of 7.5 μM), TLR8 ligand (R848 at a final concentration of 15.9 μM) or TLR9 ligand (ODN2006 at a final concentration of 5 nM) to activate NF-κB and AP-1 which induce the production of SEAP. After a 22 hour incubation at 37° C., 5% CO2, SEAP levels are determined with the addition of HEK-Blue™ Detection reagent (Invivogen), a cell culture medium that allows for detection of SEAP, according to manufacturer's specifications. The percent inhibition is determined as the % reduction in the HEK-Blue signal present in wells treated with agonist plus DMSO alone compared to wells treated with a known inhibitor.

Structures are written as SMILES.

The IC50 is the concentration that inhibits the measured activity by half. Consider `CCC(CC)CN1CCC(n2c(=O)[nH]c3cc(-c4cc(OC)c5ncnn5c4)c(C(C)C)cc32)CC1` [Example 165, 1-(1-(2-ethylbutyl)piperidin-4-yl)-6-isopropyl-5-(8-methoxy-[1,2,4]triazolo[1,5-a]pyridin-6-yl)-1,3-dihydro-2H-benzo[d]imidazol-2-one], for which the IC50 came to 10.9 nM against human TLR7 and 8.72 µM against human TLR9.

Turning to `CCN1CCC(n2c(=O)[nH]c3cc(-c4cc(C)c5ncnn5c4)cc(C)c32)CC1` [Example 108, 1-(1-ethylpiperidin-4-yl)-7-methyl-5-(8-methyl-[1,2,4]triazolo[1,5-a]pyridin-6-yl)-1,3-dihydro-2H-benzo[d]imidazol-2-one], the IC50 against human TLR7 was 11.5 nM; on human TLR9 it was 1.16 µM.

In the case of `COc1cc(-c2cc3[nH]c(=O)n([C@@H]4CCCN(CC5CC5)C4)c3cc2C(C)C)cn2ncnc12` [Example 142, (R)-1-(1-(cyclopropylmethyl)piperidin-3-yl)-6-isopropyl-5-(8-methoxy-[1,2,4]triazolo[1,5-a]pyridin-6-yl)-1,3-dihydro-2H-benzo[d]imidazol-2-one], the IC50 at human TLR7 turned out to be 0.64 nM; on human TLR9, 6.02 µM.

With `COc1cc(-c2cc3[nH]c(=O)n(C4CCN(CC(C)C)CC4)c3cc2C(C)C)cn2ncnc12` [Example 164, 1-(1-isobutylpiperidin-4-yl)-6-isopropyl-5-(8-methoxy-[1,2,4]triazolo[1,5-a]pyridin-6-yl)-1,3-dihydro-2H-benzo[d]imidazol-2-one], the IC50 worked out at 12.3 nM against human TLR7 and 17.2 µM against human TLR9.

Consider `COc1cc(-c2cc3[nH]c(=O)n([C@H]4CCCN(C(C)C)C4)c3cc2C(C)C)cn2ncnc12` [Example 120, (S)-6-isopropyl-1-(1-isopropylpiperidin-3-yl)-5-(8-methoxy-[1,2,4]triazolo[1,5-a]pyridin-6-yl)-1,3-dihydro-2H-benzo[d]imidazol-2-one], for which the IC50 against human TLR7 worked out at 0.64 nM; against human TLR9, 1.94 µM.

As for `COc1cc(-c2cc3[nH]c(=O)n([C@H]4CCCN(C)C4)c3cc2C(C)C)cn2ncnc12` [Example 119, (S)-6-isopropyl-5-(8-methoxy-[1,2,4]triazolo[1,5-a]pyridin-6-yl)-1-(1-methylpiperidin-3-yl)-1,3-dihydro-2H-benzo[d]imidazol-2-one], the values for the IC50 on human TLR7 and on human TLR9 were 31.8 nM and 26.3 µM, respectively.

As to `CCC(CC)CN1CCC[C@@H](n2c(=O)[nH]c3cc(-c4cc(OC)c5ncnn5c4)c(C(F)(F)F)cc32)C1` [Example 117, (R)-1-(1-(2-ethylbutyl)piperidin-3-yl)-5-(8-methoxy-[1,2,4]triazolo[1,5-a]pyridin-6-yl)-6-(trifluoromethyl)-1,3-dihydro-2H-benzo[d]imidazol-2-one], the IC50 is 64.4 nM at human TLR7 and 11.8 µM on human TLR9.

In the case of `COc1cc(-c2cc3[nH]c(=O)n([C@@H]4CCCN(C)C4)c3cc2C(F)(F)F)cn2ncnc12` [Example 114, (R)-5-(8-methoxy-[1,2,4]triazolo[1,5-a]pyridin-6-yl)-1-(1-methylpiperidin-3-yl)-6-(trifluoromethyl)-1,3-dihydro-2H-benzo[d]imidazol-2-one], the values for the IC50 at human TLR7 and at human TLR9 were 2.87 nM and 0.618 µM, respectively.

Consider `COc1cc(-c2cc3[nH]c(=O)n(C4CCN(C5CCOCC5)CC4)c3cc2C(C)C)cn2ncnc12` [Example 158, 6-isopropyl-5-(8-methoxy-[1,2,4]triazolo[1,5-a]pyridin-6-yl)-1-(1-(tetrahydro-2H-pyran-4-yl)piperidin-4-yl)-1,3-dihydro-2H-benzo[d]imidazol-2-one], for which the IC50 against human TLR7 is 11.2 nM; at human TLR9 it was 21.4 µM.

Take `COc1cc(-c2cc3[nH]c(=O)n([C@H]4CCCN(CC5CCC5)C4)c3cc2C(C)C)cn2ncnc12` [Example 133, (S)-1-(1-(cyclobutylmethyl)piperidin-3-yl)-6-isopropyl-5-(8-methoxy-[1,2,4]triazolo[1,5-a]pyridin-6-yl)-1,3-dihydro-2H-benzo[d]imidazol-2-one]: the IC50 was 17.3 nM against human TLR7 and 7.14 µM on human TLR9.

Take `COc1cc(-c2cc3[nH]c(=O)n([C@@H]4CCCN(C5COC5)C4)c3cc2C(C)C)cn2ncnc12` [Example 135, (R)-6-isopropyl-5-(8-methoxy-[1,2,4]triazolo[1,5-a]pyridin-6-yl)-1-(1-(oxetan-3-yl)piperidin-3-yl)-1,3-dihydro-2H-benzo[d]imidazol-2-one]: the IC50 against human TLR7 was 26.3 nM; against human TLR9 it was over 50 µM.

Turning to `COc1cc(-c2cc3[nH]c(=O)n([C@@H]4CCCN(C(C)C)C4)c3cc2C(C)C)cn2ncnc12` [Example 137, (R)-6-isopropyl-1-(1-isopropylpiperidin-3-yl)-5-(8-methoxy-[1,2,4]triazolo[1,5-a]pyridin-6-yl)-1,3-dihydro-2H-benzo[d]imidazol-2-one], the IC50 amounted to 0.74 nM against human TLR7 and 7.07 µM on human TLR9.

Regarding `COc1cc(-c2cc3[nH]c(=O)n(C4CCN(CC5CCOC5)CC4)c3cc2C(C)C)cn2ncnc12` (stereo not shown) [Example 160, 6-isopropyl-5-(8-methoxy-[1,2,4]triazolo[1,5-a]pyridin-6-yl)-1-(1-((tetrahydrofuran-3-yl)methyl)piperidin-4-yl)-1,3-dihydro-2H-benzo[d]imidazol-2-one], the IC50 was 8.66 nM at human TLR7 and 14.3 µM against human TLR9.

Consider `COc1cc(-c2cc3[nH]c(=O)n(C4CCN(C)CC4)c3cc2C(C)C)cn2ncnc12` [Example 154, 6-isopropyl-5-(8-methoxy-[1,2,4]triazolo[1,5-a]pyridin-6-yl)-1-(1-methylpiperidin-4-yl)-1,3-dihydro-2H-benzo[d]imidazol-2-one], for which the half-inhibitory concentration (IC50) at human TLR7 turned out to be 2.12 nM; at human TLR9, 23.5 µM.
